Source: patent US6448260B2, “Endothelin receptor antagonists” (SmithKline Beecham Corporation, priority 1991, dated 2002)
Counter-ions that a name gives are not always drawn.

Structure (SMILES)	melting point
CCCOc1ccc2c(c1)[C@H](c1ccc(OC)cc1OCC(=O)[O-])[C@@H](C(=O)O[C@@H](C)OC(=O)C(C)(C)OC)[C@@H]2c1ccc2c(c1)OCO2.[Na+] (racemic)	178 to 181 °C (dec.)
O=C(O)C1[C@H](c2ccccc2)c2ccccc2[C@H]1c1ccccc1 (racemic) (as salt: sodium) [Example 21, (1RS, 3RS)-1,3-Diphenylindane-2-carboxylic acid]	220 to 222 °C (dec.)
COc1ccc([C@@H]2c3ccccc3[C@H](c3ccc4c(c3)OCO4)[C@H]2c2nnn[nH]2)cc1 (racemic) (hydrate or solvate) [Example 9, (1RS, 2SR, 3SR)-1-(4-Methoxyphenyl)-3-(3,4-methylenedioxyphenyl)-2-(tetrazol-5-yl)indane]	155 to 157 °C
COc1ccc([C@@H]2c3ccccc3[C@H](c3ccccc3)[C@H]2C(=O)O)cc1 (racemic) [Example 1, (1RS,2RS,3SR)-1-(4-Methoxyphenyl)-3-phenylindane-2-carboxylic acid]	164 to 166 °C
O=C(O)[C@H]1[C@H](c2ccc(F)cc2)c2ccccc2[C@@H]1c1ccc2c(c1)OCO2 (racemic) [Example 4, (1RS, 2SR, 3SR)-1-(4-Fluorophenyl)-3-(3,4-methylenedioxyphenyl)indane-2-carboxylic acid]	146 to 149 °C
COc1cccc([C@@H]2c3ccccc3[C@H](c3ccc4c(c3)OCO4)[C@H]2C(=O)O)c1 (racemic) [Example 5, (1RS, 2SR, 3SR)-1-(3-Methoxyphenyl)-3-(3,4-methylenedioxyphenyl)indane-2-carboxylic acid]	131 to 133 °C
O=C(O)C1[C@H](c2ccc3c(c2)OCO3)c2ccccc2[C@H]1c1ccc2c(c1)OCO2 (racemic) [Example 6, (1RS, 3RS)-1,3-Di-(3,4-methylenedioxyphenyl)-indane-2-carboxylic acid]	182 to 185 °C
O=C(O)[C@H]1[C@H](c2ccc3c(c2)OCO3)c2ccccc2[C@@H]1c1ccccc1 (racemic) [Example 8, (1RS, 2RS, 3SR)-1-(3,4-Methylenedioxyphenyl)-3-phenylindane-2-carboxylic acid]	186 to 187 °C
COc1ccc(C2C(C(=O)O)=C(c3ccccc3)c3ccccc32)cc1 (racemic) [Example 15, (1RS)-1-(4-Methoxyphenyl)-3-phenylindene-2-carboxylic acid]	191 to 193 °C
CCc1ccc([C@@H]2c3ccccc3[C@H](c3ccccc3)[C@H]2C(=O)O)cc1 (racemic) [Example 20, (1RS, 2RS, 3SR)-1-(4-Ethylphenyl)-3-phenylindane-2-carboxylic acid]	163 to 164 °C
COc1ccc([C@H]2c3ccccc3[C@@H](c3ccc(NC(C)=O)cc3)[C@H]2C(=O)O)cc1 (racemic) [Example 23, (1RS, 2RS, 3SR)-1-(4-Acetamidophenyl)-3-(4-methoxyphenyl)indane-2-carboxylic acid]	231 to 232 °C
O=C(O)[C@H]1[C@H](c2ccc(O)cc2)c2ccccc2[C@@H]1c1ccc2c(c1)OCO2 (racemic) [Example 25, (1RS, 2SR, 3SR)-1-(4-Hydroxyphenyl)-3-(3,4-methylenedioxyphenyl)indane-2-carboxylic acid]	94 to 96 °C
COc1ccc([C@H]2c3ccccc3[C@@H](c3ccc(OC)c(OC)c3)[C@@H]2C(=O)O)cc1 (racemic) [Example 26, (1RS, 2RS, 3SR)-1-(3,4-Dimethoxyphenyl)-3-(4-methoxyphenyl)indane-2-carboxylic acid]	126 to 128 °C
COc1ccc([C@H]2c3cc(OC)ccc3[C@@H](c3ccc4c(c3)OCO4)[C@H]2C(=O)O)cc1 (racemic) [Example 28, (1RS, 2SR, 3SR)-5-Methoxy-3-(4-methoxyphenyl)-1-(3,4-methylenedioxyphenyl)indane-2-carboxylic acid]	129 to 131 °C
CCCOc1ccc2c(c1)[C@@H](c1ccc(OC)cc1OCC(=O)O)[C@@H](C(=O)O)[C@H]2c1cc2c(cc1OC)OCO2 (racemic) [Example 30, (1RS, 2SR, 3SR)-3-(2-Carboxymethoxy-4-methoxyphenyl)-1-(2-methoxy-4,5-methylenedioxyphenyl)-5-(prop-1-yloxy)-indane-2-carboxylic acid]	188 to 190 °C
CCCOc1ccc2c(c1)[C@H](c1ccc(OC)cc1OCOC)[C@@H](C(=O)O)[C@@H]2c1ccc2c(c1)OCO2 (racemic) [Example 31, (1RS, 2SR, 3RS)-3-(4-methoxy-2-methoxymethoxyphenyl)1-(3,4-methylenedioxyphenyl)-5-(prop-1-yloxy)indane-2-carboxylic acid]	161 to 163 °C

Structure (SMILES)	melting point
CCCOc1ccc2c(c1)[C@H](c1ccccc1OCCC)[C@@H](C(=O)O)[C@@H]2c1ccc2c(c1)OCO2 (racemic) [Example 35, (1RS, 2SR, 3RS)-1-(3,4-Methylenedioxyphenyl)-3-[2-(prop-1-yloxy)phenyl]-5-(prop-1-yloxy)indane-2-carboxylic acid]	179 to 180 °C
CCCOc1ccc2c(c1)[C@H](c1ccccc1O)[C@@H](C(=O)O)[C@@H]2c1ccc2c(c1)OCO2 (racemic) [Example 36, (1RS, 2SR, 3RS)-3-(2-Hydroxyphenyl)-1-(3,4-methylenedioxyphenyl)-5-(prop-1-yloxy)indane-2-carboxylic acid]	97 to 98 °C
CCCOc1ccc2c(c1)[C@H](c1ccccc1OCC(=O)O)[C@@H](C(=O)O)[C@@H]2c1ccc2c(c1)OCO2 (racemic) [Example 37, (1 RS, 2SR, 3RS)-3-(2-Carboxymethoxyphenyl)-1-(3,4-methylenedioxyphenyl)-5-(prop-1-yloxy)indane-2-carboxylic acid]	169 to 170 °C
CCCOc1ccc2c(c1)[C@H](c1ccc(OC)cc1OC(C)C)[C@@H](C(=O)O)[C@@H]2c1ccc2c(c1)OCO2 (racemic) [Example 42, (1RS, 2SR, 3RS)-3-[4-Methoxy-2-(prop-2-yloxy)phenyl]-1-(3,4-methylenedioxyphenyl)-5-(prop-1-yloxy)indane-2-carboxylic acid]	75 to 79 °C
CCCOc1ccc2c(c1)[C@H](c1ccc(OC)cc1OCC(C)C)[C@@H](C(=O)O)[C@@H]2c1ccc2c(c1)OCO2 (racemic) [Example 43, (1RS, 2SR, 3RS)-3-[4-Methoxy-2-(2-methylprop-1-yloxy)phenyl]-1-(3,4-methylenedioxyphenyl)-5-(prop-1-yloxy)indane-2-carboxylic acid]	85 to 89 °C
CCCOc1ccc2c(c1)[C@H](c1ccc(OC)cc1OCC#N)[C@@H](C(=O)O)[C@@H]2c1ccc2c(c1)OCO2 (racemic) [Example 50, (1RS,2SR,3RS)-3-(2-Cyanomethoxy-4-methoxyphenyl)-1-(3,4-methylenedioxyphenyl)-5-(prop-1-yloxy)indane-2-carboxylic acid]	199 to 201 °C
CCCOc1ccc2c(c1)[C@H](c1ccc(OC)cc1-c1ccccc1)[C@@H](C(=O)O)[C@@H]2c1ccc2c(c1)OCO2 (racemic) [Example 56, (1RS, 2SR, 3RS)-3-(4-Methoxy-2-phenylphenyl)-1-(3,4-methylenedioxyphenyl)-5-(prop-1-yloxy)indane-2-carboxylic acid]	199 to 200 °C
C=CCc1cc(OC)ccc1[C@H]1c2cc(OCCC)ccc2[C@@H](c2ccc3c(c2)OCO3)[C@@H]1C(=O)O (racemic) [Example 60, (1RS, 2SR, 3SR)-3-[4-Methoxy-2-(prop-2-en-1-yl)phenyl]-1-(3,4-methylenedioxyphenyl)-5-(prop-1-yloxy)indane-2-carboxylic acid]	126 to 127 °C
CCCOc1ccc2c(c1)[C@H](c1ccc(OC)cc1CCC)[C@@H](C(=O)O)[C@@H]2c1ccc2c(c1)OCO2 (racemic) [Example 61, (1RS, 2SR, 3SR)-3-[4-Methoxy-2-(prop-1-yl)phenyl]-1-(3,4-methylenedioxyphenyl)-5-(prop-1-yloxy)indane-2-carboxylic acid]	155 to 156 °C
COc1ccc([C@@H]2c3ccccc3[C@H](c3cc(OC)c(OC)c(OC)c3)[C@H]2C(=O)O)cc1 (racemic) [Example 72, (1RS, 2SR, 3S R)-1-(4-Methoxyphenyl)-3-(3,4,5-trimethoxyphenyl)indane-2-carboxylic acid]	197 to 198 °C
CCOc1ccc([C@@H]2c3ccccc3[C@H](c3ccc4c(c3)OCO4)[C@H]2C(=O)O)cc1 (racemic) [Example 73, (1RS, 2SR, 3SR)-1-(4-Ethoxyphenyl)-3-(3,4-methylenedioxyphenyl)indane-2-carboxylic acid]	169 to 170 °C
COc1ccc([C@H]2c3cc(O)ccc3[C@@H](c3ccc4c(c3)OCO4)[C@@H]2C(=O)O)c(OC)c1 (racemic) [Example 76, (1RS, 2SR, 3RS)-3-(2,4-Dimethoxyphenyl)-5-hydroxy-1-(3,4-methylenedioxyphenyl)indane-2-carboxylic acid]	110 to 113 °C
COc1cc(OC)c([C@H]2c3ccc(O)cc3[C@@H](c3ccc4c(c3)OCO4)[C@@H]2C(=O)O)c(OC)c1 (racemic) [Example 78, (1RS, 2SR, 3RS)-5-Hydroxy-3-(3,4-methylenedioxyphenyl)-1-(2,4,6-trimethoxyphenyl)indane-2-carboxylic acid]	225 to 226 °C
COc1ccc([C@@H]2c3ccc(O)cc3[C@H](c3ccc4c(c3)OCO4)[C@H]2C(=O)O)cc1 (racemic) [Example 81, (1RS, 2SR, 3SR)-5-Hydroxy-3-(3,4-methylenedioxyphenyl)-1-(4-methoxyphenyl)indane-2-carboxylic acid]	124 to 127 °C
COc1ccc([C@@H]2c3cc(O)ccc3[C@H](c3cc4c(cc3OC)OCO4)[C@H]2C(=O)O)cc1 (racemic) [Example 82, (1RS, 2SR, 3RS)-5-Hydroxy-3-(4-methoxyphenyl)-1-(2-methoxy-4,5-methylenedioxyphenyl)indane-2-carboxylic acid]	236 to 239 °C
COc1ccc([C@@H]2c3cc(OC)ccc3[C@@H](c3ccc4c(c3)OC(OC)O4)[C@H]2C(=O)O)cc1 (mixture of isomers) [Example 84, (1RS, 2SR, 3RS)-5-Methoxy-3-(4-methoxyphenyl)-1-(2-methoxy4,5-methylenedioxyphenyl)indane-2-carboxylic acid]	149 to 150 °C
